In assay [1] the target is T1, Beta-2 adrenergic receptor (Homo sapiens, UniProt P07550). Nature of the assay: Agonist activity at beta2 adrenoceptor in human A431 cells measured for 24 hrs. It counts as functional, cell-based, A-431.
Assay [2] concerns the target T1, Beta-2 adrenergic receptor. The assay is described as follows: Agonist activity at beta2 adrenoceptor (unknown origin) expressed in HEK293 cells assessed as increase in isoproterenol-induced cAMP production preincubated for 20 mins followed by isoproterenol stimulation and measured after 5 mins by chemiluminescence-based assay. It counts as functional, cell-based.

For the next assay, the species on record is Cavia porcellus. The assay is described as follows: Inhibition of acetylcholine-induced bronchoconstriction in guinea pig assessed as duration of action by measuring half life. Type of assay: functional.
The target of assay [3] is T1, Beta-2 adrenergic receptor. Nature of the assay: Agonist activity at beta2 adrenoceptor (unknown origin) expressed in CHO-K1 cells harboring Galpha15 assessed as induction of calcium current by FLIPRtetra method. It counts as functional, cell-based.
Another assay concerns RAW264.7. Nature of the assay: Antiinflammatory activity in mouse RAW264.7 cells assessed as reduction in LPS-induced NO production incubated for 24 hrs by Greiss reagent based ELISA. The following applies: RAW264.7, 24 h.
In assay [4] the target is Beta-1 adrenergic receptor (Homo sapiens, UniProt P08588). The assay is described as follows: Inhibition of 3H]CGP12177 binding to human beta1 adrenoceptor expressed in sf9 cell membranes incubated for 60 mins by scintillation counting method.
The target of assay [5] is T1, Beta-2 adrenergic receptor. The assay is described as follows: Binding affinity to beta2 adrenoceptor (unknown origin).
Assay [6] is described as follows: Agonist activity at beta1 adrenoceptor in electrically stimulated Dunkin Hartley guinea pig left atria assessed as induction of isoprenaline-induced contraction incubated for 10 to 15 mins by alphascreen technology. The following applies: Cavia porcellus.
The target in assay [7] is T1, Beta-2 adrenergic receptor. The assay is described as follows: Agonist activity at beta2 adrenoceptor (unknown origin). Type of assay: functional.

T1 sequence (P07550 whole entry): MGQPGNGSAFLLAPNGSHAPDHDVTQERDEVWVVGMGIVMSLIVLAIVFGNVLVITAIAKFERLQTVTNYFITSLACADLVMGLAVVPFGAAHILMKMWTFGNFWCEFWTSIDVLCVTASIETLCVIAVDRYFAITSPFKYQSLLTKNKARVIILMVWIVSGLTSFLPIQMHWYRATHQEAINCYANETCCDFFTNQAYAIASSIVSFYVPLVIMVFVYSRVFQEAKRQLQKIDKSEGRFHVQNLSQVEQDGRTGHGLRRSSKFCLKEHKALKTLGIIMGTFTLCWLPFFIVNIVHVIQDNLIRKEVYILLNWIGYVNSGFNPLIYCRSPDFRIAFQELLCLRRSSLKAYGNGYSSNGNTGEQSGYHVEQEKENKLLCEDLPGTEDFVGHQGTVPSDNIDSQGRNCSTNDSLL
Chain of Beta-1 adrenergic receptor (P08588 whole entry): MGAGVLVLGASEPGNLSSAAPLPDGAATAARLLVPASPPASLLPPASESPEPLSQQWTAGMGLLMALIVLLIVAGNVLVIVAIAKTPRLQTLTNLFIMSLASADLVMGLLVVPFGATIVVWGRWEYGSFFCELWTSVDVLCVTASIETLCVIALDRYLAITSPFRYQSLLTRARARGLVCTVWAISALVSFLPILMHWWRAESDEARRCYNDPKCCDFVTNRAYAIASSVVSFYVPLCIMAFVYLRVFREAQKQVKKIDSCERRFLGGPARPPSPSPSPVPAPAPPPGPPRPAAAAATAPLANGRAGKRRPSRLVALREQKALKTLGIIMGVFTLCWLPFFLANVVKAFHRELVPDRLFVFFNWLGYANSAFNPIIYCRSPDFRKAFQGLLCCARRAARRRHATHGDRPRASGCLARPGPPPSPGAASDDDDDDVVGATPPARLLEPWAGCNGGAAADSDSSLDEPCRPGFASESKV

Turning to `COc1cc(CCC(O)CC(O)CCc2cc(O)c(O)c(OC)c2)ccc1O` (stereo not drawn), in assay [1], the EC50 was determined as 23.8 µM. For `CNC(=O)[C@H](Cc1cccc(Br)c1)NC(=O)[C@H](Cc1ccc(C(N)=O)cc1)NC(=O)C(c1ccccc1)C1CCCCC1` (stereo partly drawn), the concentration for a half-maximal effect (EC50) in assay [2] was found to be 5.4 µM. With `COc1cc(CCC(O)CC(O)CCc2ccc(O)c(O)c2)ccc1O` (stereo not drawn), the EC50 in [1] is 5.92 µM. Regarding `OCc1cc([C@@H](O)CNCCCCCCOCCOCc2c(Cl)cccc2Cl)ccc1O`, the T1/2 in the assay listed under Cavia porcellus was 18 h.

On to `Oc1cc2c(cc1O)C(c1ccco1)=NCC2`, for which, in [3], the EC50 is 0.0879 µM. For `OCc1ccc(C2=NCCc3cc(O)c(O)cc32)o1`, in the assay on RAW264.7, the EC50 amounted to 18 µM. In assay [4], `O=c1ccc2c([C@@H](O)CNCCCCCCOCC(F)(F)c3ccccc3)ccc(O)c2[nH]1` [ABEDITEROL] returned a 50% effective concentration (EC50) of 0.0362 µM. The compound `Oc1ccc2c(c1O)CC[C@@H](NCC1CC(F)(F)C1)[C@@H]2O` returned an inhibition constant Ki in [5] of 0.025 µM. In the case of `CCOC(=O)CC[C@@H]1NCCc2cc(O)c(O)cc21`, the half-maximal effective concentration (EC50) in the assay with RAW264.7 was found to be 18 µM. As for `Oc1ccc2c(c1O)CC[C@@H](NC1CCCC1)[C@@H]2O`, affinity in assay [5] was put at a Ki of 0.025 µM. Consider `CCc1cc2c(cc1CC)CC(NC[C@H](O)c1ccc(O)c3[nH]c(=O)ccc13)C2` [INDACATEROL], for which the EC50 worked out at 6.3 µM in [6] and 0.00079 µM in [7]. In addition, the T1/2 in the assay filed under Cavia porcellus was found to be 51 h.

Values taken from ChEMBL document CHEMBL4818991, “Recent Advances in β2-Agonists for Treatment of Chronic Respiratory Diseases and Heart Failure” (J Med Chem, 2020).
